# Measured values taken from patent US8377948B2, “Antitumor agents and methods of their use” (The Ohio State University Research Foundation, priority 2004, dated 2013).
# System: PC-3 cells
# Test: MTT cell viability assay, PC-3 cells in 10% FBS medium
# Format: cell-based, human
# Settings: RPMI 1640 with 10% FBS, means ± S.D. (n = 6)
# Description: PC-3 (p53−/−) human androgen-nonresponsive prostate cancer cells were purchased from the American Type Tissue Collection (Manassas, Va.). Cells were cultured in RPMI 1640 medium (Gibco, Grand Island, N.Y.) supplemented with 10% fetal bovine serum (FBS; Gibco) at 37° C. in a humidified incubator containing 5% CO2.
# Effect of the test agent on cell viability was assessed by the MTT {[3-(4,5-dimethylthiazol-2-yl)-2,5-diphenyl-2H-tetrazolium bromide]} assay in 96-well, flat-bottomed plates, in which 8,000 PC-3 or DU-145 cells/well were seeded. Cells were exposed to the test agent at the indicated concentrations, in six replicates, in 10% FBS-supplemented-RPMI-1640 medium at 37° C. in 5% CO2 for 48 hr. The medium was removed and replaced by 150 μL of 0.5 mg/mL of MTT in RPMI-1640 medium, and cells were incubated in the CO2 incubator at 37° C. for 2 h. Supernatants were removed from the wells, and the reduced MTT dye was solubilized with 200 μL/well DMSO. Absorbance was determined on a plate reader at 570 nm.
# All compounds were evaluated for their ability to induce apoptotic death in human androgen-independent PC-3 prostate cancer in RPMI 1640 medium containing 10% fetal bovine serum (FBS). For representative compounds tested in DU-145 and LNCaP prostate cancer cells, the IC50 values for inhibiting cell proliferation were similar in these three cell lines irrespective of differences in androgen sensitivity, PTEN mutation, the functional status of p53 and Rb, and other biomarkers.
Compound,"IC50 (Homo sapiens, PC-3, 48 h)",IC50 (48 h)
"COc1cc2nc(N3CCN(C(=O)c4ccc(Cl)cc4)CC3)nc(N)c2cc1OC [Compound 1, [4-(4-Amino-6,7-dimethoxy-quinazolin-2-yl)-piperazin-1-yl]-(4-chloro-phenyl)-methanone]",60 ± 8 µM,
"COc1cc2nc(N3CCN(C(=O)c4ccc(C#N)cc4)CC3)nc(N)c2cc1OC [Compound 2, 4-[4-(4-Amino-6,7-dimethoxy-quinazolin-2-yl)-piperazine-1-carbonyl]-benzonitrile]",68 ± 6 µM,
"COc1cc2nc(N3CCN(C(=O)OCc4ccccc4)CC3)nc(N)c2cc1OC [Compound 3, 4-(4-Amino-6,7-dimethoxy-quinazolin-2-yl)-piperazine-1-carboxylic acid benzyl ester]",63 ± 6 µM,
"COc1cc2nc(N3CCN(C(=O)c4cccc(C#N)c4)CC3)nc(N)c2cc1OC [Compound 4, 3-[4-(4-Amino-6,7-dimethoxy-quinazolin-2-yl)-piperazine-1-carbonyl]-benzo-nitrile]",82 ± 5 µM,
"COc1cc2nc(N3CCN(C(=O)c4ccc([N+](=O)[O-])cc4)CC3)nc(N)c2cc1OC [Compound 5, [4-(4-Amino-6,7-dimethoxy-quinazolin-2-yl)-piperazin-1-yl]-(4-nitro-phenyl)-methanone]",75 ± 11 µM,
"COc1ccc(C(=O)N2CCN(c3nc(N)c4cc(OC)c(OC)cc4n3)CC2)cc1OC [Compound 6, [4-(4-Amino-6,7-dimethoxy-quinazolin-2-yl)-piperazin-1-yl]-(3,4-dimethoxy-phenyl)-methanone]",71 ± 8 µM,
"COc1cc2nc(N3CCN(C(=O)c4cccc5ccccc45)CC3)nc(N)c2cc1OC [Compound 7, [4-(4-Amino-6,7-dimethoxy-quinazolin-2-yl)-piperazin-1-yl]-naphthalen-1-yl-methanone]",59 ± 4 µM,
"COc1cc2nc(N3CCN(C(=O)c4ccc(N)cc4)CC3)nc(N)c2cc1OC [Compound 8, [4-(4-Amino-6,7-dimethoxy-quinazolin-2-yl)-piperazin-1-yl]-(4-amino-phenyl)-methanone]",> 100 µM,
"COc1cc2nc(N3CCN(C(=O)c4ccc(C(C)(C)C)cc4)CC3)nc(N)c2cc1OC [Compound 9, [4-(4-Amino-6,7-dimethoxy-quinazolin-2-yl)-piperazin-1-yl]-(4-tert-butyl-phenyl)-methanone]",47 ± 6 µM,
"COc1cc2nc(N3CCN(C(=O)c4ccc(C(F)(F)F)cc4)CC3)nc(N)c2cc1OC [Compound 10, [4-(4-Amino-6,7-dimethoxy-quinazolin-2-yl)-piperazin-1-yl]-(4-trifluoromethyl-phenyl)-methanone]",> 100 µM,
"COc1cc2nc(N3CCN(S(=O)(=O)c4cccc(C(=O)O)c4)CC3)nc(N)c2cc1OC [Compound 24, 3-[4-(4-Amino-6,7-dimethoxy-quinazolin-2-yl)-piperazine-1-sulfonyl]-benzoic acid]",53 ± 4 µM,
"COc1cc2nc(N3CCN(S(=O)(=O)c4cc(Cl)ccc4Cl)CC3)nc(N)c2cc1OC [Compound 26, 2-[4-(2,5-Dichloro-benzenesulfonyl)-piperazin-1-yl]-6,7-dimethoxy-quinazolin-4-ylamine]",60 ± 7 µM,
"COc1cc2nc(N3CCN(S(=O)(=O)c4ccc(N)cc4N)CC3)nc(N)c2cc1OC [Compound 27, 4-[4-(4-Amino-6,7-dimethoxy-quinazolin-2-yl)-piperazine-1-sulfonyl]-benzene-1,3-diamine]",67 ± 5 µM,
"COc1cc2nc(N3CCN(S(=O)(=O)c4cc(C(=O)O)c(Cl)cc4F)CC3)nc(N)c2cc1OC [Compound 28, 5-[4-(4-Amino-6,7-dimethoxy-quinazolin-2-yl)-piperazine-1-sulfonyl]-2-chloro-4-fluoro-benzoic acid]",56 ± 4 µM,
"COc1cc2nc(N3CCN(S(=O)(=O)c4cc(C(=O)O)c(Cl)cc4Cl)CC3)nc(N)c2cc1OC [Compound 29, 5-[4-(4-Amino-6,7-dimethoxy-quinazolin-2-yl)-piperazine-1-sulfonyl]-2,4-dichloro-benzoic acid]",52 ± 6 µM,
"COc1cc2nc(N3CCN(S(=O)(=O)c4c(C(C)C)cc(C(C)C)cc4C(C)C)CC3)nc(N)c2cc1OC [Compound 34, 6,7-Dimethoxy-2-[4-(2,4,6-triisopropyl-benzonesulfonyl)-piperazin-1-yl]-quinazolin-4-yl-amine]",,24 ± 3 µM
"COc1cc2nc(N3CCN(S(=O)(=O)c4ccc(-c5cc6ccccc6c6ccccc56)cc4)CC3)nc(N)c2cc1OC [Compound 35, 6,7-Dimethoxy-2-[4-(4-phenanthren-9-yl-benzenesulfonyl)-piperazin-1-yl]-quinazolin-4-ylamine]",4 to 5 µM,5.2 ± 0.9 µM

# Second part, led by results:
"IC50 (Homo sapiens, PC-3, 48 h)",Compound,IC50 (48 h)
23 ± 3 µM,"COc1cc2nc(N3CCN(S(=O)(=O)c4ccc(Cl)cc4)CC3)nc(N)c2cc1OC [Compound 11, 2-[4-(4-Chloro-benzonesulfonyl)-piperazin-1-yl]-6,7-dimethoxy-quinazolin-4-yl-amine]",
20 ± 2 µM,"COc1cc2nc(N3CCN(S(=O)(=O)c4ccc(Br)cc4)CC3)nc(N)c2cc1OC [Compound 12, 2-[4-(4-Bromo-benzenesulfonyl)-piperazin-1-yl]-6,7-dimethoxy-quinazolin-4-yl-amine]",
15 ± 2 µM,"COc1cc2nc(N3CCN(S(=O)(=O)c4ccc(I)cc4)CC3)nc(N)c2cc1OC [Compound 13, 2-[4-(4-Iodo-benzenesulfonyl)-piperazin-1-yl]-6,7-dimethoxy-quinazolin-4-yl-amine]",
25 ± 3 µM,"COc1cc2nc(N3CCN(S(=O)(=O)c4ccc(Cl)s4)CC3)nc(N)c2cc1OC [Compound 14, 2-[4-(5-Chloro-thiophene-2-sulfonyl)-piperazin-1-yl]-6,7-dimethoxy-quinazolin-4-ylamine]",
35 ± 4 µM,"COc1cc2nc(N3CCN(S(=O)(=O)c4ccccc4[N+](=O)[O-])CC3)nc(N)c2cc1OC [Compound 15, 6,7-Dimethoxy-2-[4-(2-nitro-benzenesulfonyl)-piperazin-1-yl]-quinazolin-4-yl-amine]",
32 ± 5 µM,"COc1cc2nc(N3CCN(S(=O)(=O)c4cccc([N+](=O)[O-])c4)CC3)nc(N)c2cc1OC [Compound 16, 6,7-Dimethoxy-2-[4-(3-nitro-benzenesulfonyl)-piperazin-1-yl]-quinazolin-4-yl-amine]",
36 ± 3 µM,"COc1cc2nc(N3CCN(S(=O)(=O)c4ccc([N+](=O)[O-])cc4)CC3)nc(N)c2cc1OC [Compound 17, 6,7-Dimethoxy-2-[4-(4-nitro-benzenesulfonyl)-piperazin-1-yl]-quinazolin-4-yl-amine]",
30 ± 2 µM,"COc1cc2nc(N3CCN(S(=O)(=O)c4ccc(C)cc4)CC3)nc(N)c2cc1OC [Compound 18, 6,7-Dimethoxy-2-[4-(toluene-4-sulfonyl)-piperazin-1-yl]-quinazolin-4-ylamine]",
27 ± 3 µM,"COc1cc2nc(N3CCN(S(=O)(=O)c4ccc(C(F)(F)F)cc4)CC3)nc(N)c2cc1OC [Compound 19, 6,7-Dimethoxy-2-[4-(4-trifluoromethyl-benzenesulfonyl)-piperazin-1-yl]-quinazolin-4-yl-amine]",
39 ± 4 µM,"COc1ccc(S(=O)(=O)N2CCN(c3nc(N)c4cc(OC)c(OC)cc4n3)CC2)cc1 [Compound 20, 6,7-Dimethoxy-2-[4-(4-methoxy-benzenesulfonyl)-piperazin-1-yl]-quinazolin-4-yl-amine]",
25 ± 2 µM,"COc1cc2nc(N3CCN(S(=O)(=O)c4ccc(OC(F)(F)F)cc4)CC3)nc(N)c2cc1OC [Compound 21, 6,7-Dimethoxy-2-[4-(4-trifluoromethoxy-benzenesulfonyl)-piperazin-1-yl]-quinazolin-4-yl-amine]",
17 ± 3 µM,"COc1cc2nc(N3CCN(S(=O)(=O)c4ccc(S(C)(=O)=O)cc4)CC3)nc(N)c2cc1OC [Compound 22, 2-[4-(4-Methanesulfonyl-benzenesulfonyl)-piperazin-1-yl]-6,7-dimethoxy-quinazolin-4-ylamine]",
4 to 5 µM,"COc1cc2nc(N3CCN(S(=O)(=O)c4ccc(C(C)(C)C)cc4)CC3)nc(N)c2cc1OC [Compound 23, 2-[4-(4-tert-Butyl-benzenesulfonyl)-piperazin-1-yl]-6,7-dimethoxy-quinazolin-4-ylamine]",4.1 ± 0.7 µM
14 ± 2 µM,"COc1cc2nc(N3CCN(S(=O)(=O)c4cccc5ccccc45)CC3)nc(N)c2cc1OC [Compound 30, 6,7-Dimethoxy-2-[4-(naphthalene-1-sulfonyl)-piperazin-1-yl]-quinazolin-4-yl-amine]",
15 ± 2 µM,"COc1cc2nc(N3CCN(S(=O)(=O)c4ccc5ccccc5c4)CC3)nc(N)c2cc1OC [Compound 31, 6,7-Dimethoxy-2-[4-(naphthalene-2-sulfonyl)-piperazin-1-yl]-quinazolin-4-yl-amino]",
29 ± 4 µM,"COc1cc2nc(N3CCN(S(=O)(=O)c4cccc5c(N(C)C)cccc45)CC3)nc(N)c2cc1OC [Compound 32, 2-[4-(5-Dimethylamino-naphthalene-1-sulfonyl)-piperazin-1-yl]-6,7-dimethoxy-quinazolin-4-ylamine]",
3.4 ± 0.4 µM,"COc1cc2nc(N3CCN(S(=O)(=O)c4ccc(-c5ccc(C)cc5)cc4)CC3)nc(N)c2cc1OC [Compound 36, 6,7-Dimethoxy-2-[4-(4′-methyl-biphenyl-4-sulfonyl)-piperazin-1-yl]-quinazolin-4-yl-amine]",
